Marks after values point to notes of the source that are not given here.
What was measured:
swiss albino mice [1] = assay: Analgesic activity, acetic acid induced writhing method; assay type: in vivo
Method: The objective of the study was to evaluate the analgesic activity of the tested formulations of the compounds of the present invention. The test was conducted in Swiss albino mice using acetic acid induced writhing method. A total of 78 pre-screened mice (showing writhing response within 10 minutes*) were divided into 6 groups of 13 animals (6 males+7 females) each. The animals showing no writhing response within 10 mins were excluded. Diclofenac and pentazocine were used as positive controls. The formulations were given orally to the different groups of animals and the number of writhes counted for a period of 15 minutes, after the onset of writhes. If the onset of writhes occurred 30 after 10 minutes the number of writhes was recorded as V. The time of onset of writhes was recorded for each animal.
The control group received 1% gum acacia. The Groups 2, 3, and 4 received the formulations viz: Phen 2; Phen 3 and Phen 4 respectively. Diclofenac and pentazocine were used as positive control and given to groups 5 and 6 respectively. Diclofenac, a potent analgesic & anti-inflammatory agent; and 5 pentazocine an opoid analgesic were selected for comparative evaluation of test formulations. Both these drugs were administered to different groups of animals at the dose of 2 mg/kg. The group 1 (Phen 1) served as—Ve Control group in the study. Phen 5 (Diclofenac—2 mg/kg) and Positive Control: Phen 6 (Pentazocine 2 mg/kg) served as positive controls.
Human daily dose of 2400 mg (800 mg×3 times) was extrapolated to mice for Phen3 and human daily dose of 1200 mg (400 mg×3 times) was extrapolated to mice for Phen2 and Phen 4. The numbers of writhes observed are given below in Table 4 for each formulation.
Further, the evaluation of analgesic activity was carried out using variable dosage forms with different groups. A total of 100 animals (50 males+50 females) were selected randomly and distributed into ten main groups with 10 animals per group (5 M+5 F). Human daily dose of 2400 mg (800 mg×3 times) was extrapolated to mice for Phen 3 (Phenyramidol Racemic (Hydrochloride) and human daily dose of 1200 mg (400 mg×3 times), 1800 mg (400 mg×4.5 times), 2000 mg (400 mg×5 times) & 2400 mg (400 mg×6 times) was extrapolated to mice for Phen2 and Phen4 groups.
The control group 1 received 1% gum acacia and served as negative control group. Groups 2, 3, 4 & 5 received the formulation Phen2. Groups 6, 7, 8 & 9 received the formulation Phen 4 (Isomer 2) & Group 10 received the formulation Phen 3 (Racemic).
Further, one more experiment was done with phenyramidol hydrochloride to evaluate the analgesic activity at lesser dosage levels using acetic acid induced method. A total of 50 animals (25 males+25 females) were selected and randomly distributed into five main groups with 10 animals per group (5 M+5 F). 5 Human daily dose of 600 mg (400×1.5 times) & 1200 mg (800 mg×1.5 times) was extrapolated to mice for Phen 3 (Racemic) and human daily dose of 600 mg (400 mg×1.5 times) was extrapolated to mice for (−) Phenyramidol Hydrochloride & (+) Phenyramidol Hydrochloride and the results are discussed in Table 6.

swiss albino mice [2] = assay: Skeletal muscle relaxant activity, Rota rod, second experiment (racemic, S isomer, R isomer); assay type: in vivo; settings: confirmed by a Rota-rod method
Method: The evaluation of skeletal muscle relaxant activity of the formulations containing phenyramidol racemic, dextro and laevo isomers of oxalate salts in swiss albino mice were carried out using Rota rod apparatus. Each animal was trained only once per day for 5 days. […] Mouse was placed on rota rod only when it achieved the speed of 25 rpm. The ‘fall off time’ in seconds was noted down when the mouse falls from rotating rod. Endurance time was measured up to 120 seconds. The skeletal muscle relaxant activity was assessed using 0 hr, 1 hr, 2 hrs, 4 hrs and 6 hrs time points after the dose administration. A total of 100 mice were selected and randomly distributed into ten main groups with 10 animals per group.
Two efficacy variables were assessed during the experiment: 1. Percent animal falling from the rod was noted; 2. Endurance Time (ET): The time taken for a mouse to fall from the rod was taken as endurance time. The endurance time was taken up to 120 sec and treatment group ET was compared to normal control. These efficacy variables were assessed at five time points 0 hr, 1 hr, 2 hr, 4 hr, and 6 hr for each and every animal.
In another experiment, the studies have been extended to confirm the isomer which is having more skeletal muscle relaxant activity. Control group (R1) receiving only vehicle (water for injection) served as a placebo in the study. […]

In the case of `Cl.O[C@H](CNc1ccccn1)c1ccccc1` [(+) Phenyramidol Hydrochloride, (S)-Phenyramidol Hydrochloride Salt], the “Average no. of writhes” value (swiss albino mice [1]; Table 6, dose 600 mg (human daily dose extrapolated to mice), mean ± SD, n = 10) is reported as 5.00 ± 4.64*, the “analgesic activity by decrease in the number of writhes induced by acetic acid” value (swiss albino mice [1]; experiment of Table 6, lesser dosage levels) is reported as “significant analgesic activity” and the “skeletal muscle relaxant activity (summary statement)” value (swiss albino mice [2]) is reported as “enhanced skeletal muscle relaxant activity”.
